System: prostate cancer epithelial cells
Experiment: Stromal-epithelial co-culture: PSC27 extracellular fluid on proliferation, migration, invasion of prostate cancer epithelial cells
Type: cell-based, human
Conditions: extracellular fluid of bleomycin-damaged PSC27 treated with TAK1 inhibitor
Experimental: c. Experimental Treatment In Vitro • 100 nM docetaxel (DTX), 100 nM paclitaxel (PTX), 200 nM vincristine (VCR), 50 μg/ml bleomycin (BLEO), 1 μM mitoxantrone (MIT), or 10 Gy ^137CS ionizating radiation (γ-radiation at 743 rad/min, RAD) was added to the culture medium when PSC27 cells grown to 80% (PSC27-Pre) to produce cell damage. After drug treatment for 6 hours, the cells were simply washed by PBS for 3 times and kept in the culture medium for 7 to 10 days, followed by subsequent experiments. 2. Plasmid Preparation and Lentiviral Transfection • Full-length human IKKα and Flag were cloned as a fusion protein between the restriction sites BamHI and XbaI in the expression vector pCR3.1. Full-length human mTOR and GST were cloned as a fusion protein between a pair of NotI restriction sites in the expression vector pcDNA3. Packaging cell line 293FT was used for cell transfection and lentivirus production. The sequences of small hairpin RNAs (shRNAs) for knocking out TRAF6 were as follows: • 5′-[…]-3′(SEQ ID NO: 1); and • 5′-[…]-3′ (SEQ ID NO: 2). • The sequences of small hairpin RNAs (shRNAs) for knocking out TAK1 were as follows: • 5′-[…]-3′(SEQ ID NO: 3); and • 5′-[…]-3′(SEQ ID NO: 4). • The sequences of small hairpin RNAs (shRNAs) for knocking out IL-1α were as follows: • 5′-[…]-3′(SEQ ID NO: 5); and • 5′-[…]-3′ (SEQ ID NO: 6). 3. Immunofluorescence and Histochemical Analysis • Mouse monoclonal antibody anti-phospho-Histone H2A.X (Ser139) (clone JBW301, Millipore) or mouse monoclonal antibody anti-Phosphor-53BP1 (Cat #sc-135748, Santa Cruz), and secondary antibody Alexa Fluor® 488 (or 594)-conjugated F(ab′)2 were added sequentially to slides on which cells were fixed. […] FV1000 laser scanning confocal microscopy (Olympus) was used to obtain cellular confocal fluorescence images to determine the extent of DNA damage. • Antibody anti-TAK1 used for histological IHC staining in clinical prostate, non-small cell lung cancer patients and breast cancer patients, was purchased from Proteintech, idib. […] Quantitative PCR for Measuring Gene Expression […]

In the case of `COc1cc(O)c2c(c1)/C=C/C[C@H](O)[C@H](O)C(=O)/C=C\C[C@H](C)OC2=O` [5Z-7, 5z-7-oxozeaenol], the “in vitro migration of prostate cancer epithelial cells promoted by stromal cell extracellular fluid” value is reported as “significantly reduced”, the “invasion of prostate cancer epithelial cells promoted by stromal cell extracellular fluid” value is reported as “significantly weakened” and the “proliferation of prostate cancer epithelial cells promoted by stromal cell extracellular fluid” value is reported as “decreased significantly”.

From US11344601B2, “Tumor microenvironment-related target TAK1 and application thereof in inhibition of tumor” (Shanghai Institutes for Biological Sciences, Chinese …, priority 2017, dated 2022)
